From patent US7049313B2, “ATM inhibitors” (Kudos Pharmaceuticals Ltd., priority 2002, dated 2006)

The compounds below were run against T1, ATM (Homo sapiens, UniProt Q13315) (assay: In vitro ATM inhibition assay (phosphorylation of GSTp53N66 on serine 15)).
T1 construct: ATM protein was immunoprecipitated from HeLa cell nuclear extract; endogenous in cells; host or cells: HeLa cell nuclear extract (immunoprecipitate)
Assay type: biochemical
Experimental: In vitro ATM inhibition Assays
In order to assess the inhibitory action of the compounds against ATM in vitro, the following assay was used to determine IC50 values.
ATM protein was immunoprecipitated from HeLa cell nuclear extract using rabbit polyclonal anti-sera raised to the C-terminal ˜500 amino-acid residues of the human ATM protein. The immunoprecipitation was performed according to the methodology described by Banin, S. et al. (1998). 10 μl of immunoprecipitated ATM in Buffer C (50 mM Hepes, pH 7.4, 6 mM MgCl2, 150 mM NaCl, 0.1 mM sodium orthovanadate, 4 mM MnCl2, 0.1 mM dithiothreitol, 10% glycerol) was added to 32.5 μl of buffer C containing 1 μg of the ATM substrate GSTp53N66 in a V-bottomed 96 well polypropylene plate. The GSTp53N66 substrate is the amino terminal 66 amino acid residues of human wild type p53 fused to glutathione S-transferase. ATM phosphorylates p53 on the residue serine 15 (Banin, S. et al. (1998)). Varying concentrations of inhibitor were then added. […] After 10 minutes of incubation at 37° C., the reactions were initiated by the addition of 5 μl of 500 μM Na-ATP. After 1 hour with shaking at 37° C., 150 μl of phosphate buffered saline (PBS) was added to the reaction and the plate centrifuged at 1500 rpm for 10 minutes. 5 μl of the reaction was then transferred to a 96 well opaque white plate containing 45 μl of PBS to allow the GSTp53N66 substrate to bind to the plate wells. The plate was covered and incubated at room temperature for 1 hour with shaking before discarding the contents. The plate wells were washed twice by the addition of PBS prior to the addition of 3% (w/v) bovine serum albumin (BSA) in PBS. The plate was incubated at room temperature for 1 hour with shaking before discarding the contents and washing twice with PBS. To the wells, 50 μl of a 1:10,000 dilution of primary phosphoserine-15 antibody (Cell Signaling Technology, #9284L) in 3% BSA/PBS was added to detect the phosphorylation event on the serine 15 residue of p53 elicited by the ATM kinase. After 1 hour of incubation at room temperature with shaking, the wells were washed four times with PBS prior to the addition of an anti-rabbit HRP conjugated secondary antibody (Pierce, 31462) with shaking for 1 hour at room temperature. The wells were then washed four times with PBS before the addition of chemiluminescence reagent (NEN Renaissance, NEL105). The plate was then shaken briefly, covered with a transparent plate seal and transferred to a TopCount NXT for chemiluminescent counting. Counts per second, following a one second counting time, were recorded for each reaction.
The enzyme activity for each compound is then calculated using the following equation: […]

T1 sequence (Q13315 whole entry): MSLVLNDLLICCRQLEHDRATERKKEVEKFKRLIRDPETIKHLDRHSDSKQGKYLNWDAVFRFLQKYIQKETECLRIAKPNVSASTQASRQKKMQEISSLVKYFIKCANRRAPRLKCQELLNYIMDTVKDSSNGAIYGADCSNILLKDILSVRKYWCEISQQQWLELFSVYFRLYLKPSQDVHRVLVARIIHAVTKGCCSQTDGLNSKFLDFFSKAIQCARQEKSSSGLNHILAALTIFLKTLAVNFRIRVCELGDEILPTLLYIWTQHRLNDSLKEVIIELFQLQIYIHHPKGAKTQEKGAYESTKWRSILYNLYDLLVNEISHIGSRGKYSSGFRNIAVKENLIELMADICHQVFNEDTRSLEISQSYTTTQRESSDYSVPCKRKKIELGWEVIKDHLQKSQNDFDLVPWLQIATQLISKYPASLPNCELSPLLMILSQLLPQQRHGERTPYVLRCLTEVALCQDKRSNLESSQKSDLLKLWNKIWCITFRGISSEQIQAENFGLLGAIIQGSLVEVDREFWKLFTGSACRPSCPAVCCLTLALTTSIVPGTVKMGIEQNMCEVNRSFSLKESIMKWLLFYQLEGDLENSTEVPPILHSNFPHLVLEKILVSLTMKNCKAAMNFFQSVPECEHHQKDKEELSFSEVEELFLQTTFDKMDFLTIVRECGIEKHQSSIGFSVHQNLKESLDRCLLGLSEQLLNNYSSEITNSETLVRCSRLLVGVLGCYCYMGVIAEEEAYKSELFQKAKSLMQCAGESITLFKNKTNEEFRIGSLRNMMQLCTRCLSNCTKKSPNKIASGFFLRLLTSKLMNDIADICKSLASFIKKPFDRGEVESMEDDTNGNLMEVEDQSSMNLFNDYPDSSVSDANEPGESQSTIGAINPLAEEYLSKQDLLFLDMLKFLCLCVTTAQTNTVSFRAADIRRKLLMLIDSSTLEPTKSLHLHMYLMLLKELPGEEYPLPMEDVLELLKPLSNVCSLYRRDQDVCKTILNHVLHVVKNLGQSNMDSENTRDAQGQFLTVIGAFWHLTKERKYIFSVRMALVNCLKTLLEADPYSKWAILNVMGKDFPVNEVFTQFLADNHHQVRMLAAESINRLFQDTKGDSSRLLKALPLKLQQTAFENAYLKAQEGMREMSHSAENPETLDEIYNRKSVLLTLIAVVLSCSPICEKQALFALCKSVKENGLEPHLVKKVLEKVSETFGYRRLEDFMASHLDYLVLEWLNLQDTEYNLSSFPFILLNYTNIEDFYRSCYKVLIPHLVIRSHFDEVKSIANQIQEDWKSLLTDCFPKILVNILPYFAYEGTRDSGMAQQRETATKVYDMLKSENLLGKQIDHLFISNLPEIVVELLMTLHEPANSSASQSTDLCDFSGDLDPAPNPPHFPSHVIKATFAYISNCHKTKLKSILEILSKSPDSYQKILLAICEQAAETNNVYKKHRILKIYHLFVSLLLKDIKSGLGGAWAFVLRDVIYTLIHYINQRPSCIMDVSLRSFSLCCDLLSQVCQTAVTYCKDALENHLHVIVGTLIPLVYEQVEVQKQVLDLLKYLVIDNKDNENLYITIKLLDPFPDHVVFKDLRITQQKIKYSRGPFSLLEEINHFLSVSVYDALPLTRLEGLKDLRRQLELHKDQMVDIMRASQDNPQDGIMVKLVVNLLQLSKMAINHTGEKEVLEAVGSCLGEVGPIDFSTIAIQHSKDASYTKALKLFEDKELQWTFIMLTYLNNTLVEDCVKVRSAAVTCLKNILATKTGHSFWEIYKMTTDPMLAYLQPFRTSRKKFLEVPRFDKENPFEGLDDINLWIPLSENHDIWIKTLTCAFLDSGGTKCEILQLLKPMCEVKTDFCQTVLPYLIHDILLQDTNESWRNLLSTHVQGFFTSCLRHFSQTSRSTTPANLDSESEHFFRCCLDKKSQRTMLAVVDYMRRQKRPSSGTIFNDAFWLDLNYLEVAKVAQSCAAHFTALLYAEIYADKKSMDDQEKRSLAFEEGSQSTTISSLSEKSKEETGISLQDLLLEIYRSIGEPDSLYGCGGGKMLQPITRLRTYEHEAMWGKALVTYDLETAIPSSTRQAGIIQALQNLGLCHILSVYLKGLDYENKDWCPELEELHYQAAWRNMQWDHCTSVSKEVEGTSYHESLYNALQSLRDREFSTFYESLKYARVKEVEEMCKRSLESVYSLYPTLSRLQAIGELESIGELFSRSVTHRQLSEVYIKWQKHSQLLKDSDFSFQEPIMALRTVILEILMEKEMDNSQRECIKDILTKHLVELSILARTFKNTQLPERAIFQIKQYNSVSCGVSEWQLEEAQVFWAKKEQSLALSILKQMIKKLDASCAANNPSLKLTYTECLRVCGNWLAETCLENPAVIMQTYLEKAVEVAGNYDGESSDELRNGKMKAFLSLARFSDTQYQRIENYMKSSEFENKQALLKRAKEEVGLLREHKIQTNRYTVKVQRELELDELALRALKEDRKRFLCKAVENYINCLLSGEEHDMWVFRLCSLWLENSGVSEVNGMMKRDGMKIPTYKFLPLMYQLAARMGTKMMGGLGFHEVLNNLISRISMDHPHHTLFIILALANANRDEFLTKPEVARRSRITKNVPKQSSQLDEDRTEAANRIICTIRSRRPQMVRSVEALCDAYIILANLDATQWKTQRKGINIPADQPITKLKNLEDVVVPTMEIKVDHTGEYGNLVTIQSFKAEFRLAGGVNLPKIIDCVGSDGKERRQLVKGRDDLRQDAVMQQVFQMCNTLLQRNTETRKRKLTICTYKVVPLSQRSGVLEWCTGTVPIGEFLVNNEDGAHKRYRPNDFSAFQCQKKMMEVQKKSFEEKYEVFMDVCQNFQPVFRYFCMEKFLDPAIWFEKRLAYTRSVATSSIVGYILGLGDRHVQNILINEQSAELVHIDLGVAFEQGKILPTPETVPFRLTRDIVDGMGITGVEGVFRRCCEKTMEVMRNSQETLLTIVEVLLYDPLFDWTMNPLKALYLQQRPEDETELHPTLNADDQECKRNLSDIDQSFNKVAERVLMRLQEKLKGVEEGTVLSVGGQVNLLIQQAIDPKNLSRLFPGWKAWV

| IC50 | SMILES |
| --- | --- |
| < 200 nM | S=c1cc(-c2cccc3c2Sc2ccccc2S3)oc(N2CCOCC2)c1 [Compound 18, 2-Thianthren-1-yl-6-morpholin-4-yl-pyran-4-thione] |
| < 200 nM | CCN(CC)CCC(=O)Nc1ccc2c(c1)Cc1cccc(-c3cc(=O)cc(N4CCOCC4)o3)c1S2 [Compound 83] |
| < 200 nM | NCCC(=O)Nc1ccc2c(c1)Cc1cccc(-c3cc(=O)cc(N4CCOCC4)o3)c1S2 [Compound 84] |
| < 200 nM | O=C(NC1CCCC1)c1ccc2c(c1)Sc1cccc(-c3cc(=O)cc(N4CCOCC4)o3)c1S2 [Compound 155] |
| < 200 nM | CCCCNC(=O)c1ccc2c(c1)Sc1cccc(-c3cc(=O)cc(N4CCOCC4)o3)c1S2 [Compound 143] |
| < 200 nM | NCCNCC(=O)Nc1ccc2c(c1)Cc1cccc(-c3cc(=O)cc(N4CCOCC4)o3)c1S2 [Compound 57] |
| < 200 nM | CCN(CC)CCCNC(=O)c1ccc2c(c1)Sc1cccc(-c3cc(=O)cc(N4CCOCC4)o3)c1S2 [Compound 182] |
| < 200 nM | O=C(Nc1ccc2c(c1)Cc1cccc(-c3cc(=O)cc(N4CCOCC4)o3)c1S2)C1CCC1 [Compound 32] |
| < 200 nM | O=C(CN1CCCCCC1)Nc1ccc2c(c1)Cc1cccc(-c3cc(=O)cc(N4CCOCC4)o3)c1S2 [Compound 61] |
| < 20000 nM | O=c1cc(-c2ccc(F)c3c(=O)c4ccccc4sc23)oc(N2CCOCC2)c1 [Compound 13, 2-(1-Fluoro-9-oxo-9H-thioxanthen-4-yl)-6-morpholin-4-yl-pyran-4-one] |
| < 200 nM | O=C(NCC(F)(F)F)c1ccc2c(c1)Sc1cccc(-c3cc(=O)cc(N4CCOCC4)o3)c1S2 [Compound 148] |
| < 200 nM | COc1ccc(CNCC(=O)Nc2ccc3c(c2)Cc2cccc(-c4cc(=O)cc(N5CCOCC5)o4)c2S3)cc1 [Compound 63] |
| < 200 nM | CSc1ncccc1C(=O)Nc1ccc(-c2cc(=O)cc(N3CCOCC3)o2)c2c1Cc1ccccc1S2 [Compound 122] |
| < 200 nM | O=C(Cc1cccs1)Nc1ccc2c(c1)Cc1cccc(-c3cc(=O)cc(N4CCOCC4)o3)c1S2 [Compound 31] |
| < 200 nM | O=C(CCN1CCCNCC1)Nc1ccc2c(c1)Cc1cccc(-c3cc(=O)cc(N4CCOCC4)o3)c1S2 [Compound 78] |
| < 200 nM | O=C(CCN(CCO)CCO)Nc1ccc2c(c1)Cc1cccc(-c3cc(=O)cc(N4CCOCC4)o3)c1S2 [Compound 72] |
| < 200 nM | COC(=O)CCCC(=O)Nc1ccc2c(c1)Cc1cccc(-c3cc(=O)cc(N4CCOCC4)o3)c1S2 [Compound 25] |
| < 200 nM | O=c1cc(-c2ccc(O)c3c2Cc2ccccc2S3)oc(N2CCOCC2)c1 [Compound 87, 2-(4-Hydroxy-9H-thioxanthen-1yl)-6-morpholin-4-yl-pyran-4-one] |
| < 200 nM | O=C(CCSc1ncn[nH]1)Nc1ccc2c(c1)Cc1cccc(-c3cc(=O)cc(N4CCOCC4)o3)c1S2 [Compound 82] |
| < 200 nM | CC(C)(C)OC(=O)N1c2ccccc2Sc2c(-c3cc(=O)cc(N4CCOCC4)o3)cccc21 [Compound 134, 4-(6-Morpholin-4-yl-4-oxo-4H-pyran-2-yl)-phenothiazine-10-carboxylic acid tert-butyl ester] |
| < 200 nM | Cc1cc(C(=O)Nc2ccc3c(c2)Cc2cccc(-c4cc(=O)cc(N5CCOCC5)o4)c2S3)c(C)o1 [Compound 42] |
| < 200 nM | O=C(NCCc1ccccn1)c1ccc2c(c1)Sc1cccc(-c3cc(=O)cc(N4CCOCC4)o3)c1S2 [Compound 173] |
| < 200 nM | COCC(=O)CC(=O)Nc1ccc(-c2cc(=O)cc(N3CCOCC3)o2)c2c1Cc1ccccc1S2 [Compound 124] |
| < 200 nM | O=C(Nc1ccc(-c2cc(=O)cc(N3CCOCC3)o2)c2c1Cc1ccccc1S2)c1ccc2c(c1)OCO2 [Compound 115] |
| < 200 nM | CN(C)c1ccc(CNC(=O)c2ccc3c(c2)Sc2cccc(-c4cc(=O)cc(N5CCOCC5)o4)c2S3)cc1 [Compound 169] |
| < 200 nM | O=C(c1ccc2c(c1)Sc1cccc(-c3cc(=O)cc(N4CCOCC4)o3)c1S2)N1CCCCCC1 [Compound 161] |
| < 200 nM | O=C(Nc1ccc(-c2cc(=O)cc(N3CCOCC3)o2)c2c1Cc1ccccc1S2)c1cccnc1 [Compound 119] |
